Results on 1 compound are retold here after patent US9464056B2, “Fungicidal 4-methylanilino pyrazoles” (E. I. DU PONT DE NEMOURS AND COMPANY, priority 2012, dated 2016).

One series deals with Botrytis cinerea. The series can be described thus: Test A: preventive spray on tomato seedlings, Botrytis cinerea (tomato Botrytis), visual disease rating. The following applies: 100 = 100% disease control, 0 = no disease control relative to controls. Type of series: in vivo. The source says:
(§1) General protocol for preparing test suspensions for Tests A-H: the test compounds were first dissolved in acetone in an amount equal to 3% of the final volume and then suspended at the desired concentration (in ppm) in acetone and purified water (50/50 mix by volume) containing 250 ppm of the surfactant Trem® 014 (polyhydric alcohol esters). The resulting test suspensions were then used in Tests A-F. Spraying a 40 ppm test suspension to the point of run-off on the test plants was the equivalent of a rate of 160 g/ha. Unless otherwise indicated, the rating values indicate a 40 ppm test suspension was used. The test suspension was sprayed to the point of run-off on tomato seedlings. The following day the seedlings were inoculated with a spore suspension of Botrytis cinerea (the causal agent of tomato Botrytis) and incubated in saturated atmosphere at 20° C. for 48 h, and then moved to a growth chamber at 27° C. for 3 days, after which time visual disease ratings were made. Results for Tests A-F are given in Table A. In the Table, a rating of 100 indicates 100% disease control and a rating of 0 indicates no disease control (relative to the controls). A dash (-) indicates no test results.

Another series concerns Alternaria solani. Put plainly: Test B: preventive spray on tomato seedlings, Alternaria solani (tomato early blight), visual disease rating. The series is classed as in vivo. The following applies: 100 = 100% disease control, 0 = no disease control relative to controls. The source says: General protocol for preparing test suspensions for Tests A-H: the test compounds were first dissolved in acetone in an amount equal to 3% of the final volume and then suspended at the desired concentration (in ppm) in acetone and purified water (50/50 mix by volume) containing 250 ppm of the surfactant Trem® 014 (polyhydric alcohol esters). The resulting test suspensions were then used in Tests A-F. Spraying a 40 ppm test suspension to the point of run-off on the test plants was the equivalent of a rate of 160 g/ha. Unless otherwise indicated, the rating values indicate a 40 ppm test suspension was used. The test suspension was sprayed to the point of run-off on tomato seedlings. The following day the seedlings were inoculated with a spore suspension of Alternaria solani (the causal agent of tomato early blight) and incubated in a saturated atmosphere at 27° C. for 48 h, and then moved to a growth chamber at 24° C. for 5 days, after which time visual disease ratings were made. Results for Tests A-F are given in Table A. In the Table, a rating of 100 indicates 100% disease control and a rating of 0 indicates no disease control (relative to the controls). A dash (-) indicates no test results.

The test system of series [1] is Puccinia recondita f. sp. tritici. The series can be described thus: Test E1: curative spray on wheat seedlings after inoculation, Puccinia recondita f. sp. tritici (wheat leaf rust), visual disease rating. The following applies: sprayed after inoculation (curative), 100 = 100% disease control, 0 = no disease control relative to controls. The series is classed as in vivo.
Text: as §1, with “used. Wheat seedlings were inoculated with a spore suspension of Puccinia recondita f. sp. tritici (the causal agent of wheat leaf rust) and incubated in a saturated atmosphere at 20° C. for 24 h, and then moved to a growth chamber at 20° C. for 2 days. After 2 days, the” for “used. The”, “on the wheat seedlings, and then” for “on tomato seedlings. The following day”, “were moved back to the growth chamber” for “were inoculated with a spore suspension of Botrytis cinerea (the causal agent of tomato Botrytis) and incubated in saturated atmosphere”, “for 4 days. Upon removal,” for “for 48 h, and then moved to a growth chamber at 27° C. for 3 days, after which time”

For series [2] the test system is unchanged. The series can be described thus: Test E2: preventive spray on wheat seedlings, Puccinia recondita f. sp. tritici (wheat leaf rust), visual disease rating. Type of series: in vivo. The following applies: topical, 192 h, 100 = 100% disease control, 0 = no disease control relative to controls. The source says: General protocol for preparing test suspensions for Tests A-H: the test compounds were first dissolved in acetone in an amount equal to 3% of the final volume and then suspended at the desired concentration (in ppm) in acetone and purified water (50/50 mix by volume) containing 250 ppm of the surfactant Trem® 014 (polyhydric alcohol esters). The resulting test suspensions were then used in Tests A-F. Spraying a 40 ppm test suspension to the point of run-off on the test plants was the equivalent of a rate of 160 g/ha. Unless otherwise indicated, the rating values indicate a 40 ppm test suspension was used. The test suspension was sprayed to the point of run-off on wheat seedlings. The following day the seedlings were inoculated with a spore suspension of Puccinia recondita f. sp. tritici (the causal agent of wheat leaf rust) and incubated in a saturated atmosphere at 20° C. for 24 h, and then moved to a growth chamber at 20° C. for 7 days, after which time visual disease ratings were made. Results for Tests A-F are given in Table A. In the Table, a rating of 100 indicates 100% disease control and a rating of 0 indicates no disease control (relative to the controls). A dash (-) indicates no test results.

The nature of series [3]: Single oral dose pharmacokinetics in rats, plasma and fat analysed by LC/MS (fat:plasma ratio). Type of series: in vivo. The following applies: vertebrate animals (rats), single oral gavage dose; compared to corresponding analogs. How it is done:
The pharmacokinetic properties of compounds of Formula 1 can be measured using a wide variety of assay protocols known in the science of pharmacology. In one illustrative method involving a single oral dose, three male and three female rats receive a single dose of a test substance via oral gavage. Approximately 0.25 mL of blood is collected via tail vein immediately prior to dosing, and then at 0.25, 0.5, 1, 2, 4, 8, 12, 24 h and every 24 h thereafter until sacrifice. At sacrifice, fat is also collected to determine the fat:plasma ratio at sacrifice. […] After removal of the proteins, the plasma is analyzed for parent compound and/or metabolites by liquid chromatography-mass spectrometry (LC/MS). […] The extract is then analyzed for parent compound and/or metabolites by LC/MS. The plasma pharmacokinetic data is then analyzed using nonlinear modeling software (e.g., WinNonlin™ from Pharsight, Cary, N.C., U.S.A.) to determine half-life of the administered compound in plasma, the time after administration when the maximum plasma concentration is reached (Tmax), the maximum plasma concentration (Cmax) and the area under the plasma concentration curve (AUC). […] However, by using multiple rats sacrificed after different intervals from time of dosing, such parameters as Cmax for fat are determined.

As for `Cc1cc(F)c(Nc2c(-c3ccc(F)cc3Cl)c(C)nn2C)c(Br)c1` [Compound 1, N-(2-bromo-6-fluoro-4-methylphenyl)-4-(2-chloro-4-fluorophenyl)-1,3-dimethyl-1H-pyrazol-5-amine], the melting point was in the range of 132 to 133 °C. Besides, in the series with Botrytis cinerea, the pest or weed control at 40 µg/mL came out at 100%. The “Test B rating (% disease control)” value in the series with Alternaria solani is given as 99. In series [1], the “Test E1 rating (% disease control)” value was found to be 100. Besides, the pest or weed control at 40 µg/mL in series [2] was determined as 100%. In series [3], the distribution into fat entry was “significantly diminished distribution into fat”.

By pest or weed control is commonly meant the degree to which the test organism was suppressed or injured, in per cent. A lower pest or weed control goes with a weak effect. A word on the melting point: it is the temperature of the solid-liquid transition.
